Measured values from patent publication US12162902B2, “Decarboxylase inhibitors for treating Parkinson's disease” (SAIL BIOMEDICINES, priority 2018, dated 2024).
Like-named read-outs stand apart in the source and are kept apart here.

Tests used:
[1] = system: Enterococcus faecalis v583; assay: Inhibition of E. faecalis decarboxylation activity in vitro (residual levodopa, LC-MS); type: cell-based
[2] = molecular target: Tyrosine decarboxylase (tdc) (Enterococcus faecalis (strain EnGen0310 / MMH594), UniProt P0DTQ4); assay: Inhibition of tyrosine decarboxylase in vitro (dopamine formed from levodopa, LC-MS); type: biochemical; conditions: 60 min preincubation of tdc with inhibitor at room temperature, pH 5.5, 9 mM levodopa, 5 min reaction
Tyrosine decarboxylase (tdc), sequence (P0DTQ4 whole entry): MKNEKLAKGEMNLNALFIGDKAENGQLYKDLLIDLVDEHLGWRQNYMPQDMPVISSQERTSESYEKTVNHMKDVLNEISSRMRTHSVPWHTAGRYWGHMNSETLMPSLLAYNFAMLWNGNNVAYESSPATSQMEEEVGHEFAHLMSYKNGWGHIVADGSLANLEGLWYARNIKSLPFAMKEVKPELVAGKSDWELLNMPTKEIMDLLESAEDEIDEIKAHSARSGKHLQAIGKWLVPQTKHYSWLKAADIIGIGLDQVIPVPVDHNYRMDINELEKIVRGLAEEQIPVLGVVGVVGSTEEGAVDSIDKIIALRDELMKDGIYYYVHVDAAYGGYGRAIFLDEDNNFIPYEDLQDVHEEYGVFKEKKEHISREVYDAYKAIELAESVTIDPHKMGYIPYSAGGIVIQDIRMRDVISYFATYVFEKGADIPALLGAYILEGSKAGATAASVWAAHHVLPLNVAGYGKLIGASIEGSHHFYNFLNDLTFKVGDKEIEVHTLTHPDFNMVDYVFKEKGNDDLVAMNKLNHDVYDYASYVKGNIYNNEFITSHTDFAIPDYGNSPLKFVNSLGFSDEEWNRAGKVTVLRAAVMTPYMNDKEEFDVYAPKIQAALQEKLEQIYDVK
Description: Tyrosine decarboxylase (tdc) was obtained by following a previously published literature procedure (Science, 14 Jun. 2019: Vol. 364, Issue 6445, eaau6323). Tdc (220 nM final concentration) was thawed on ice and then mixed with pyridoxal-5-phosphate (2.2 mM final concentration) in 200 mM sodium acetate buffer, pH 5.5 optionally containing 1 mM TCEP. To this mixture was added inhibitor at a final concentration of 1000, 333, 111, 37, 12, 4.1, 1.4, or 0 μM (final volume: 100 μL; inhibitor was 100-fold concentrated in a solution of DMSO, H2O, or DMSO:H2O (1/1 v/v)). The protein-inhibitor mixture was incubated at room temperature for 60 min. 6 μL of this mixture was then withdrawn from each solution and mixed with 54 μL of 10 mM levodopa in 200 mM sodium acetate buffer pH 5.5. The final concentration of the reaction was 22 nM tdc, 220 μM pyridoxal-5-phosphate, 9 mM levodopa in 200 mM sodium acetate buffer pH 5.5 with 0-100 μM inhibitor. The reaction was proceeded for 5 min at room temperature before quenching by addition of 540 μL acetonitrile containing 0.1 (v/v) formic acid supplemented with 200 nM tolbutamide as an internal standard. The reactions were centrifuged (3,000 g, 10 min), and then 100 μL of each supernatant was transferred to a fresh plate. 100 μL of acetonitrile containing 0.1% (v/v) formic acid supplemented with 200 nM tolbutamide was added. An external standard curve containing 0-150 μM dopamine was prepared in the exact same manner.
Dopamine formed in each reaction was quantified by using an Agilent 6470 triple quadrupole mass spectrometer equipped with an Acquity UPLC. Mobile phase A consisted of H2O containing 10 mM ammonium formate, pH 3.0 and supplemented with 0.1% (v/v) formic acid. Mobile phase B consisted of acetonitrile containing 10 mM ammonium formate, pH 3.0 and supplemented with 0.1% (v/v) formic acid. 5 μL of each sample was injected onto a BEH Amide column (Waters Corporation, 2.1×50 mm, 1.7 μm). The gradient was set to: 100% mobile phase B at 0 min, decreasing linearly to 65% mobile phase B by 1.5 min, held constant at 65% mobile phase B until 2.5 min, ramped back up to 100% mobile phase B by 2.6 min, and held constant at 100% mobile phase B until 4.2 min. The flow rate was 0.6 mL/min. The dopamine was detected by using the mass spectrometer in multiple reaction monitoring (MRM) mode, quantifying the transition 154.1 to 137.0 m/z in positive mode. The fragmentor setting was 74, the collision energy was 9, and the cell accelerator voltage was 4, and the dwell time was 20. Tolbutamide was monitored using MRM and quantifying the transition of 271.1 to 91.0 m/z in positive mode. The fragmentor setting was 88, the collision energy was 37, and the cell accelerator voltage was 4, and the dwell time was 20.
The amount of dopamine was quantified by normalizing the area to the area of tolbutamide internal standard within each sample. This relative response was then compared to that of the standard curve to obtain the dopamine formed within each sample. The concentration of dopamine formed as a function of the inhibitor concentration at the preincubation stage was plotted in GraphPad Prism 8, and the IC50 was calculated using the non-linear fit for the standard IC50 curve equation “[inhibitor] vs response (three parameters).”

[3] = Enterococcus faecalis, V583, E. faecalis v583 culture in BHI broth pH 5 with 1.5 mM levodopa, 24 h at 37° C. anaerobic, read-out: IC50 @ 60 min
[4] = E. faecalis v583 culture in BHI broth pH 5 with 1.5 mM levodopa, 24 h at 37° C. anaerobic, read-out: IC50 @ 60 min

Compound | IC50 [1, 3] [mM] | IC50 ([2]; IC50 @ 60 min) [µM] | IC50 ([2]; read-out: IC50 @ 60 min) [µM] | other results
COC(=O)NC(CF)(Cc1ccc(O)cc1)C(=O)O (stereo not drawn) [Compound W, 3-fluoro-2-(4-hydroxybenzyl)-2-((methoxycarbonyl)amino)-propanoic Acid] | > 1 | > 1000 | – | –
Cc1cc(CC(N)(CF)C(=O)O)ccc1O (stereo not drawn) [Compound N, 2-amino-3-fluoro-2-(4-hydroxy-3-methylbenzyl)propanoic Acid] | – | – | 2.6 | –
NC(CF)(Cc1cccc(O)c1)C(=O)O (stereo not drawn) [Compound R, 2-amino-3-fluoro-2-(3-hydroxybenzyl)propanoic Acid] | > 1 | – | – | IC50 @ 60 min [2]: Minor inhibition
Cc1cc(CCN)ccc1O [Compound P, 4-(2-aminoethyl)-2-methylphenol] | – | > 1000 | – | IC50 ([1]; Enterococcus faecalis, V583, read-out: IC50 @ 60 min): > 1 mM
CCC(N)(Cc1ccc(O)cc1)C(=O)O (stereo not drawn) [O, 2-amino-2-(4-hydroxybenzyl)butanoic Acid] | > 1 | > 1000 | – | –
NC(CF)(Cc1ccccc1)C(=O)O (stereo not drawn) [Compound Z, 2-amino-2-benzyl-3-fluoropropanoic Acid] | > 1 | > 1000 | – | –
NC(CF)(Cc1ccc(O)c(F)c1)C(=O)O (stereo not drawn) [Compound M, 2-amino-3-fluoro-2-(3-fluoro-4-hydroxybenzyl)propanoic Acid] | – | – | 3.2 | –
NC(CF)(Cc1ccc(O)cc1)C(=O)O (single isomer, unassigned) [S] | – | – | 4 | IC50 [1, 4]: 0.002 mM
NC(Cc1ccc(O)cc1)(C(=O)O)C(F)F (stereo not drawn) [Compound K, 2-amino-3,3-difluoro-2-(4-hydroxybenzyl)propanoic Acid] | – | – | – | IC50 @ 60 min [2]: Minor inhibition
CC(=O)NC(C)(Cc1ccc(O)cc1)C(=O)O (stereo not drawn) [Compound X, 2-acetamido-3-(4-hydroxyphenyl)-2-methylpropanoic Acid] | > 1 | > 1000 | – | –
NC(CF)(Cc1ccc(O)c(Cl)c1)C(=O)O (stereo not drawn) [Compound L, 2-amino-2-(3-chloro-4-hydroxybenzyl)-3-fluoropropanoic Acid] | – | – | 2.5 | –
CC(N)(Cc1ccc(O)c(O)c1)C(=O)O (stereo not drawn) [Compound Q, 2-amino-3-(3,4-dihydroxyphenyl)-2-methylpropanoic Acid] | > 1 | > 1000 | – | –
NC(CF)(Cc1ccc(O)cc1)C(=O)O (single isomer, unassigned) [T] | – | – | 82.3 | IC50 [1, 4]: 0.0185 mM
2-amino-2-(fluoromethyl)-4-(4-hydroxyphenyl)butanoic acid [Compound U] | – | – | > 1000 | –
COC(=O)NC(C)(Cc1ccc(O)cc1)C(=O)O (stereo not drawn) [Compound V, 3-(4-hydroxyphenyl)-2-((methoxycarbonyl)amino)-2-methylpropanoic Acid] | > 1 | > 1000 | – | –
CC(=O)NC(CF)(Cc1ccc(O)cc1)C(=O)O (stereo not drawn) [Compound Y, 2-acetamido-3-fluoro-2-(4-hydroxybenzyl)propanoic acid] | > 1 | > 1000 | – | –
